test system: EBC-1 cells; test: EBC-1 cell proliferation, CellTiter-Glo Luminescent Cell Viability Assay; type: cell-based; conditions: Homo sapiens, 72 h incubation, read-out: IC50 (nM) against EBC-1 cells
Method: Test Example 3: Inhibitory Activity of Compounds disclosed herein against EBC-1 Cells
Test method: the inhibitory activity of the compounds against EBC-1 cell proliferation was evaluated using CellTiter-Glo® Luminescent Cell Viability Assay Kit (Promega).
Test procedures: when thawing EBC-1 cells, the cell cryopreservation tube was shaken rapidly in a water bath at 37° C. to thaw the cells in 1 min. The cell suspension after thawing was mixed with RPMI1640 culture medium containing 10% FBS and centrifuged for 5 min at 1000 rpm, and the supernatant was discarded. The cell pellet was suspended in 5 mL of complete culture medium. The suspension was placed in a cell culture flask with a bottom area of 25 cm^2, and cultured in a cell incubator at 37° C./95% humidity/5% CO2. Cell passage was performed when cell confluence reached about 80%. When the cells were passaged, the original cell suspension was directly made uniform by pipetting. 1/6 of the cell suspension was kept, added with 5 mL of new complete culture medium and then made uniform by pipetting. The cell culture flask was then placed in a cell incubator for further culturing. Cell plating was performed when the cell confluence reached about 80% again. With reference to the method for cell passage, 1/6 cell suspension was kept for further culturing when the cells were plated, and the remaining 5/6 of cell suspension was placed in a 15 mL centrifuge tube. Cell viability was detected by trypan blue exclusion using an IC1000 cell counter (Countstar) to ensure that cell viability was above 90%. Cell suspension at a density of 3.33×10^4 viable cells/mL was prepared using complete culture medium, and 90 μL of the cell suspension was added into 96-well cell culture plates, so that the cell density in the cell culture plates (day 0 plate and test compound plate) was 3000 viable cells/well. A control group that contains no cell or compound but only complete culture medium and a control group that contains no compound but cells were set. The cell plates were incubated overnight in a cell incubator. […] 10 μL of the above solution was added into a corresponding cell culture plate to ensure that the initial concentration of the compound was 10 μM, the dilution factor of adjacent concentration was 3.16, and the DMSO content in the cell culture plate was 0.1%. The cell plates were then incubated in the cell incubator for 72 h. During detection, CellTiter-Glo reagent (namely CellTiter-Glo® […] cell viability test reagent, Promega, Cat. No. G7572, Lot. No. 0000310975) was melted, and the cell plate was equilibrated at room temperature for 30 min. The cell plate was added with the CellTiter-Glo reagent at 100 μL per well, and then shaken on a QB-9001 microporous quick shaker (Kylin-Bell) for 5 min to fully lyse the cells. The cell plate was left to stand at room temperature for 20 min to stabilize luminescence signals, and the luminescence value of each well was scanned by a Spectramax M3 multi-functional microplate reader (Molecular Devices) at full wavelength.
Test samples: example compounds of the present invention and cabozantinib (positive control compound).
Data analysis: cell viability was calculated for compounds at various concentrations using the following formula:
Cell viability(%)=(Lumtest compound−Lumculture solution control)/(Lumcell control−Lumculture solution control)×100%,
where Lum refers to the luminescence value of each well of the test compound plate read by the multi-functional microplate reader.
The data were analyzed using GraphPad Prism 7.0 software, fitted with nonlinear S-curve regression to give dose-response curves, and IC50 values were calculated therefrom.

Row | Compound | IC50
1 | CC(C)n1cc(C(=O)Nc2ccc(-c3cc(-c4cnn(C5CCNCC5)c4)cnc3N)c(F)c2)c(=O)c(-c2ccc(F)cc2)c1C#N [Example 2, N-(4-(2-amino-5-(1-(piperidin-4-yl)-1H-pyrazol-4-yl)pyridin-3-yl)-3-fluorophenyl)-6-cyano-5-(4-fluorophenyl)-1-isopropyl-4-oxo-1,4-dihydropyridine-3-carboxamide] | 24 nM
2 | CCn1cc(-c2cnc(N)c(-c3ccc(NC(=O)c4cn(C(C)C)c(C#N)c(-c5ccc(F)cc5)c4=O)cc3F)c2)cn1 [Example 3, N-(4-(2-amino-5-(1-ethyl-1H-pyrazol-4-yl)pyridin-3-yl)-3-fluoro-phenyl)-6-cyano-5-(4-fluorophenyl)-1-isopropyl-4-oxo-1,4-dihydropyridine-3-carboxamide] | 22 nM
3 | CC(C)n1cc(C(=O)Nc2ccc(-c3cc(-c4cnn(C)c4)cnc3N)c(F)c2)c(=O)c(-c2ccc(F)cc2)c1C#N [Example 4, N-(4-(2-amino-5-(1-methyl-1H-pyrazol-4-yl)pyridin-3-yl)-3-fluorophenyl)-6-cyano-5-(4-fluorophenyl)-1-isopropyl-4-oxo-1,4-dihydropyridine-3-carboxamide] | 30 nM
4 | CC(C)n1cc(C(=O)Nc2cc(F)c(-c3cc(-c4cnn(C)c4)cnc3N)cc2F)c(=O)c(-c2ccc(F)cc2)c1C#N [Example 6, N-(4-(2-amino-5-(1-methyl-1H-pyrazol-4-yl)pyridin-3-yl)-2,5-difluorophenyl)-6-cyano-5-(4-fluorophenyl)-1-isopropyl-4-oxo-1,4-dihydropyridine-3-carboxamide] | 13 nM
5 | CC(C)n1cc(C(=O)Nc2ccc(-c3cc(-c4cnn(C5CCN(C)CC5)c4)cnc3N)c(F)c2)c(=O)c(-c2ccc(F)cc2)c1C#N [Example 7, N-(4-(2-amino-5-(1-(1-methylpiperidin-4-yl)-1H-pyrazol-4-yl)-pyridin-3-yl)-3-fluorophenyl)-6-cyano-5-(4-fluorophenyl)-1-isopropyl-4-oxo-1,4-dihydro-pyridine-3-carboxamide] | 27 nM
6 | CCn1cc(-c2cnc(N)c(-c3ccc(NC(=O)c4cn(C5CC5)c(C#N)c(-c5ccc(F)cc5)c4=O)cc3F)c2)cn1 [Example 10, N-(4-(2-amino-5-(1-ethyl-1H-pyrazol-4-yl)pyridin-3-yl)-3-fluorophenyl)-6-cyano-5-(4-fluorophenyl)-1-cyclopropyl-4-oxo-1,4-dihydropyridine-3-carboxamide] | 208 nM
7 | COc1cc2nccc(Oc3ccc(NC(=O)c4cn(C)c(C#N)c(-c5ccc(F)cc5)c4=O)cc3F)c2cc1OC [Example 21, 6-cyano-N-(4-((6,7-dimethoxyquinolin-4-yl)oxy)-3-fluoro-phenyl)-5-(4-fluorophenyl)-1-methyl-4-oxo-1,4-dihydropyridine-3-carboxamide] | 109 nM
8 | COc1cc2nccc(Oc3ccc(NC(=O)c4cn(C(C)C)c(C#N)c(-c5ccc(F)cc5)c4=O)cc3F)c2cc1OC [Example 24, 6-cyano-N-(4-((6,7-dimethoxyquinolin-4-yl)oxy)-3-fluoro-phenyl)-5-(4-fluorophenyl)-1-isopropyl-4-oxo-1,4-dihydropyridine-3-carboxamide] | 45 nM

Source: US20210355107A1, “MULTI-SUBSTITUTED PYRIDONE DERIVATIVES AND MEDICAL USE THEREOF” (Beijing Yuezhikangtai Biomedicines Co., Ltd., priority 2018, published 2021)
